Like-named read-outs stand apart in the source and are kept apart here. Values belong to the molecule of their own block, whether it stands above or below them.
System: Adjuvant Arthritis In Rats
Assay: Adjuvant-induced arthritis in rats (chronic inflammation accompanied by joint destruction)
Assay type: in vivo, Royal Hart, Wistar strain rats
Details: for inhibition in vivo at 50 mg/kg / inhibition in vivo at 100 mg/kg / inhibition in vivo at 200 mg/kg / inhibition in vivo at 400 mg/kg / inhibition in vivo at 25 mg/kg / inhibition in vivo at 18.8 mg/kg / inhibition in vivo at 37.5 mg/kg / inhibition in vivo at 75 mg/kg / inhibition in vivo at 150 mg/kg: Rattus norvegicus
Description: Groups of three Royal Hart, Wistar strain rats weighing 200±10 grams each were injected intradermally in the right hind paw with Freund's adjuvant (dried human tubercle bacilli in a mineral oil vehicle) at a dose of 2 mg./kg. of body weight. […] On the 14th and 21st day post challenge the diameter of the injected paw (primary lesion) was measured by micrometer caliper. The volume of inflamed paws were estimated from these measurements and the results are expressed as percent inhibition of swelling as compared to controls. At the same time, the other inflamed sites, such as ears, paws and tail (secondary lesions) were observed and each rat was graded as to degree of inflammation and swelling present. The grading is based on a scale of 0 to 24 where 0 represents a complete absence of induced arthritic nodules and 24 represents the maximum degree of inflammation. The mean grade for each treated group is calculated and the effects of each compound are expressed as percent inhibition of the control grade.

[1] = po, 336 h, read-out: % Inhibition of Swelling (primary lesion) Day 14
[2] = po, 504 h, read-out: % Inhibition of Swelling (primary lesion) Day 21
[3] = oral 50 mg./kg. once daily days 0-13, Day 14
[4] = oral 50 mg./kg. once daily days 0-13, Day 21
[5] = oral 50 mg./kg. once daily days 0-13
[6] = 336 h, oral 50 mg./kg. once daily days 0-13, Day 14, read-out: % Inhibition of Swelling (primary lesion) Day 14
[7] = 504 h, oral 50 mg./kg. once daily days 0-13, Day 21, read-out: % Inhibition of Swelling (primary lesion) Day 21
[8] = oral 100 mg./kg. once daily days 0-13, Day 14
[9] = oral 100 mg./kg. once daily days 0-13, Day 21
[10] = oral 100 mg./kg. once daily days 0-13
[11] = oral 200 mg./kg. once daily days 0-13, Day 14
[12] = oral 200 mg./kg. once daily days 0-13, Day 21
[13] = oral 400 mg./kg. once daily days 0-13, Day 14
[14] = oral 400 mg./kg. once daily days 0-13, Day 21
[15] = oral 25 mg./kg. once daily days 0-13, Day 14
[16] = oral 25 mg./kg. once daily days 0-13, Day 21
[17] = oral 18.8 mg./kg. once daily days 0-13, Day 14
[18] = oral 18.8 mg./kg. once daily days 0-13, Day 21
[19] = oral 37.5 mg./kg. once daily days 0-13, Day 14
[20] = oral 37.5 mg./kg. once daily days 0-13, Day 21
[21] = oral 75 mg./kg. once daily days 0-13, Day 14
[22] = oral 75 mg./kg. once daily days 0-13, Day 21
[23] = oral 150 mg./kg. once daily days 0-13, Day 14
[24] = oral 150 mg./kg. once daily days 0-13, Day 21

Compound: CC(C)(C)CC(C)(C)Nc1nc(Nc2ccc(F)cc2)nc(N2CC3CCC(CC3)C2)n1 [3-[4-p-fluoroanilino-6-(1,1,3,3-tetramethylbutylamino)-s-triazin-2-yl]-3-azabicyclo[3.2.2]nonane]
- inhibition in vivo at 50 mg/kg [1]: 32%
- inhibition in vivo at 50 mg/kg [2]: 18%
- Mean Weight Gain (grams) Day 14 [3]: 68 grams
- Mean Weight Gain (grams) Day 21 [4]: 50 grams
- Dead/Treated at 21 Days [5]: 1/18

Compound: CC(=O)Oc1ccccc1C(=O)O [Aspirin]
- inhibition in vivo at 50 mg/kg [6]: 23%
- inhibition in vivo at 100 mg/kg (336 h, oral 100 mg./kg. once daily days 0-13, Day 14, read-out: % Inhibition of Swelling (primary lesion) Day 14): 36%
- inhibition in vivo at 200 mg/kg (336 h, oral 200 mg./kg. once daily days 0-13, Day 14, read-out: % Inhibition of Swelling (primary lesion) Day 14): 48%
- inhibition in vivo at 400 mg/kg (336 h, oral 400 mg./kg. once daily days 0-13, Day 14, read-out: % Inhibition of Swelling (primary lesion) Day 14): 73%
- inhibition in vivo at 50 mg/kg [7]: 3%
- inhibition in vivo at 100 mg/kg (504 h, oral 100 mg./kg. once daily days 0-13, Day 21, read-out: % Inhibition of Swelling (primary lesion) Day 21): 13%
- inhibition in vivo at 200 mg/kg (504 h, oral 200 mg./kg. once daily days 0-13, Day 21, read-out: % Inhibition of Swelling (primary lesion) Day 21): 27%
- inhibition in vivo at 400 mg/kg (504 h, oral 400 mg./kg. once daily days 0-13, Day 21, read-out: % Inhibition of Swelling (primary lesion) Day 21): 48%
- % Inhibition of Control Grade (secondary lesion) Day 14 [3]: 12%
- Mean Weight Gain (grams) Day 14 [3]: 56 grams
- % Inhibition of Control Grade (secondary lesion) Day 21 [4]: 9%
- Mean Weight Gain (grams) Day 21 [4]: 44 grams
- Dead/Treated at 21 Days [5]: 2/21
- % Inhibition of Control Grade (secondary lesion) Day 14 [8]: 19%
- Mean Weight Gain (grams) Day 14 [8]: 48 grams
- % Inhibition of Control Grade (secondary lesion) Day 21 [9]: 8%
- Mean Weight Gain (grams) Day 21 [9]: 53 grams
- Dead/Treated at 21 Days [10]: 18/63
- % Inhibition of Control Grade (secondary lesion) Day 14 [11]: 26%
- Mean Weight Gain (grams) Day 14 [11]: 40 grams
- % Inhibition of Control Grade (secondary lesion) Day 21 [12]: 17%
- Mean Weight Gain (grams) Day 21 [12]: 44 grams
- Dead/Treated at 21 Days (oral 200 mg./kg. once daily days 0-13): 10/66
- % Inhibition of Control Grade (secondary lesion) Day 14 [13]: 58%
- Mean Weight Gain (grams) Day 14 [13]: 41 grams
- % Inhibition of Control Grade (secondary lesion) Day 21 [14]: 45%
- Mean Weight Gain (grams) Day 21 [14]: 55 grams
- Dead/Treated at 21 Days (oral 400 mg./kg. once daily days 0-13): 18/57

- Mean Weight Gain (grams) Day 14 [3]: 94 grams
- Mean Weight Gain (grams) Day 21 [4]: 89 grams
- Dead/Treated at 21 Days [5]: 1/12
Compound: CC(C)(C)C(C)(C)Nc1nc(NC23CC4CC(CC(C4)C2)C3)nc(NC(C)(C)C(C)(C)C)n1 [N^2-1-adamantyl-N^4,N^6-bis(1,1,2,2-tetramethylpropyl)melamine]
- inhibition in vivo at 50 mg/kg [6]: 47%
- inhibition in vivo at 50 mg/kg [7]: 17%

Compound: CC(C)(C)CC(C)(C)Nc1nc(NC(C)(C)C(C)(C)C)nc(N2CC3CCC(CC3)C2)n1 [3-[4-(1,1,3,3-tetramethylbutylamino)-6-[(1,1,2,2-tetramethylpropyl)amino]-s-triazin-2-yl]-3-azabicyclo[3.2.2]nonane]
- inhibition in vivo at 50 mg/kg [1]: 74%
- inhibition in vivo at 50 mg/kg [2]: 42%
- Mean Weight Gain (grams) Day 14 [3]: 66 grams
- Mean Weight Gain (grams) Day 21 [4]: 91 grams
- Dead/Treated at 21 Days [5]: 0/12

Compound: CC(C)(C)CC(C)(C)Nc1nc(NC(C)(C)CC(C)(C)C)nc(N2CC3CCC(CC3)C2)n1 [3-[4,6-bis(1,1,3,3-tetramethylbutylamino)-s-triazin-2-yl]-3-azabicyclo[3.2.2]nonane]
- inhibition in vivo at 50 mg/kg [1]: 59%
- inhibition in vivo at 50 mg/kg [2]: 23%
- Mean Weight Gain (grams) Day 14 [3]: 76 grams
- Mean Weight Gain (grams) Day 21 [4]: 67 grams
- Dead/Treated at 21 Days [5]: 2/18

Compound: CC(C)(C)Nc1nc(NC(C)(C)C)nc(N2CC3CCC(CC3)C2)n1 [3-[4,6-bis(tert-butylamino)-s-triazin-2-yl]-3-azabicyclo[3.2.2]nonane]
- inhibition in vivo at 50 mg/kg [1]: 61%
- inhibition in vivo at 50 mg/kg [2]: 22%
- Mean Weight Gain (grams) Day 14 [3]: 87 grams
- Mean Weight Gain (grams) Day 21 [4]: 69 grams
- Dead/Treated at 21 Days [5]: 1/9

Compound: CC(C)(C)C(C)(C)Nc1nc(NC(C)(C)C(C)(C)C)nc(N2CC3CCC(CC3)C2)n1 [3-{4,6-bis[(1,1,2,2-tetramethylpropyl)amino]-s-triazin-2-yl}-3-azabicyclo[3.2.2]nonane]
- inhibition in vivo at 25 mg/kg [1]: 42%
- inhibition in vivo at 50 mg/kg [1]: 58%
- inhibition in vivo at 100 mg/kg [1]: 74%
- inhibition in vivo at 25 mg/kg [2]: 24%
- inhibition in vivo at 50 mg/kg [2]: 34%
- inhibition in vivo at 100 mg/kg [2]: 41%
- % Inhibition of Control Grade (secondary lesion) Day 14 [15]: 44%
- Mean Weight Gain (grams) Day 14 [15]: 74 grams
- % Inhibition of Control Grade (secondary lesion) Day 21 [16]: 12%
- Mean Weight Gain (grams) Day 21 [16]: 70 grams
- Dead/Treated at 21 Days (oral 25 mg./kg. once daily days 0-13): 1/18
- % Inhibition of Control Grade (secondary lesion) Day 14 [3]: 48%
- Mean Weight Gain (grams) Day 14 [3]: 56 grams
- % Inhibition of Control Grade (secondary lesion) Day 21 [4]: 20%
- Mean Weight Gain (grams) Day 21 [4]: 58 grams
- Dead/Treated at 21 Days [5]: 0/36
- % Inhibition of Control Grade (secondary lesion) Day 14 [8]: 69%
- Mean Weight Gain (grams) Day 14 [8]: 73 grams
- % Inhibition of Control Grade (secondary lesion) Day 21 [9]: 45%
- Mean Weight Gain (grams) Day 21 [9]: 62 grams
- Dead/Treated at 21 Days [10]: 1/18

- Mean Weight Gain (grams) Day 14 [3]: 148 grams
- Mean Weight Gain (grams) Day 21 [4]: 181 grams
- Dead/Treated at 21 Days [5]: 1/3
Compound: CC(C)(C)C(C)(C)Nc1nc(NC2C3CC4CC(C3)CC2C4)nc(NC(C)(C)C(C)(C)C)n1 (stereo not shown) [N^2-2-adamantyl-N^4,N^6-bis(1,1,2,2-tetramethylpropyl)melamine]
- inhibition in vivo at 50 mg/kg [6]: 79%
- inhibition in vivo at 50 mg/kg [7]: 83%

Compound: CCCCC1C(=O)N(c2ccccc2)N(c2ccccc2)C1=O [Phenylbutazone]
- inhibition in vivo at 18.8 mg/kg (336 h, oral 18.8 mg./kg. once daily days 0-13, Day 14, read-out: % Inhibition of Swelling (primary lesion) Day 14): 31%
- inhibition in vivo at 37.5 mg/kg (336 h, oral 37.5 mg./kg. once daily days 0-13, Day 14, read-out: % Inhibition of Swelling (primary lesion) Day 14): 56%
- inhibition in vivo at 75 mg/kg (336 h, oral 75 mg./kg. once daily days 0-13, Day 14, read-out: % Inhibition of Swelling (primary lesion) Day 14): 62%
- inhibition in vivo at 150 mg/kg (336 h, oral 150 mg./kg. once daily days 0-13, Day 14, read-out: % Inhibition of Swelling (primary lesion) Day 14): 75%
- inhibition in vivo at 18.8 mg/kg (504 h, oral 18.8 mg./kg. once daily days 0-13, Day 21, read-out: % Inhibition of Swelling (primary lesion) Day 21): 7%
- inhibition in vivo at 37.5 mg/kg (504 h, oral 37.5 mg./kg. once daily days 0-13, Day 21, read-out: % Inhibition of Swelling (primary lesion) Day 21): 14%
- inhibition in vivo at 75 mg/kg (504 h, oral 75 mg./kg. once daily days 0-13, Day 21, read-out: % Inhibition of Swelling (primary lesion) Day 21): 28%
- inhibition in vivo at 150 mg/kg (504 h, oral 150 mg./kg. once daily days 0-13, Day 21, read-out: % Inhibition of Swelling (primary lesion) Day 21): 44%
- % Inhibition of Control Grade (secondary lesion) Day 14 [17]: 4%
- Mean Weight Gain (grams) Day 14 [17]: 50 grams
- % Inhibition of Control Grade (secondary lesion) Day 21 [18]: 8%
- Mean Weight Gain (grams) Day 21 [18]: 45 grams
- Dead/Treated at 21 Days (oral 18.8 mg./kg. once daily days 0-13): 2/21
- % Inhibition of Control Grade (secondary lesion) Day 14 [19]: 18%
- Mean Weight Gain (grams) Day 14 [19]: 53 grams
- % Inhibition of Control Grade (secondary lesion) Day 21 [20]: 13%
- Mean Weight Gain (grams) Day 21 [20]: 53 grams
- Dead/Treated at 21 Days (oral 37.5 mg./kg. once daily days 0-13): 5/39
- % Inhibition of Control Grade (secondary lesion) Day 14 [21]: 27%
- Mean Weight Gain (grams) Day 14 [21]: 51 grams
- % Inhibition of Control Grade (secondary lesion) Day 21 [22]: 15%
- Mean Weight Gain (grams) Day 21 [22]: 50 grams
- Dead/Treated at 21 Days (oral 75 mg./kg. once daily days 0-13): 2/39
- % Inhibition of Control Grade (secondary lesion) Day 14 [23]: 54%
- Mean Weight Gain (grams) Day 14 [23]: 40 grams
- % Inhibition of Control Grade (secondary lesion) Day 21 [24]: 31%
- Mean Weight Gain (grams) Day 21 [24]: 50 grams
- Dead/Treated at 21 Days (oral 150 mg./kg. once daily days 0-13): 2/27

Compound: CC(C)(C)CC(C)(C)Nc1nc(NC(C)(C)C)nc(N2CC3CCC(CC3)C2)n1 [2-(tert-butylamino)-4-(1,1,3,3-tetramethylbutylamino)-6-(3-azabicyclo[3.2.2]nonyl)-s-triazine]
- inhibition in vivo at 50 mg/kg [1]: 42%
- inhibition in vivo at 50 mg/kg [2]: 14%
- Mean Weight Gain (grams) Day 14 [3]: 85 grams
- Mean Weight Gain (grams) Day 21 [4]: 87 grams
- Dead/Treated at 21 Days [5]: 3/18
